Assay results from ChEMBL document CHEMBL4033632, “Design, synthesis and biological activity of novel donepezil derivatives bearing N-benzyl pyridinium moiety as potent and dual binding site acetylcholinesterase inhibitors” (Eur J Med Chem, 2017).
Activity calls are given as the source filed them. The calls are words filed in the database; no cut-off is given here.

Columns and labels:
[1] = Selectivity index, ratio of IC50 for equine serum BuChE to IC50 for Electric eel AChE
[2] = Antioxidant activity assessed as trolox equivalents of DPPH radical scavenging activity at 25 uM after 30 mins by UV-vis spectrophotometry; format: functional
[3] = biological target: Acetylcholinesterase (Homo sapiens, UniProt P22303); assay: Inhibition of human erythrocyte AChE using acetylthiocholine iodide as substrate pretreated for 6 mins followed by substrate addition measured up to 180 sec by Ellman's method
[4] = biological target: Amyloid-beta precursor protein (Homo sapiens) (UniProt P05067); assay: Inhibition of HFIP-pretreated amyloid beta (1 to 42) (unknown origin) self-induced aggregation at 20 uM incubated for 46 to 48 hrs by thioflavin-T fluorescence assay relative to control
[5] = biological target: Acetylcholinesterase (Electrophorus electricus, UniProt O42275); assay: Inhibition of electric eel AChE using acetylthiocholine iodide as substrate pretreated for 6 mins followed by substrate addition measured up to 180 sec by Ellman's method
[6] = test system: PC-12; assay: Neuroprotective activity against H2O2-induced oxidative damage in rat PC12 cells assessed as increase in cell viability at 6.25 uM after 24 hrs by MTT assay; format: functional, cell-based
[7] = test system: Mus musculus; assay: Toxicity in Kunming mouse assessed as body weight loss up to 2000 mg/kg, po measured up to 14 days post dose; format: organism-based; conditions: in vivo, 336 h
[8] = test system: Mus musculus; assay: Toxicity in Kunming mouse assessed as effect on water consumption up to 2000 mg/kg, po measured up to 14 days post dose; format: organism-based; conditions: in vivo, 336 h
[9] = test system: PC-12; assay: Neuroprotective activity against H2O2-induced oxidative damage in rat PC12 cells assessed as cell viability at 12.5 uM after 24 hrs by MTT assay relative to control; format: functional; conditions: PC-12, 24 h, read-out: Activity
[10] = biological target: Acetylcholinesterase (Electrophorus electricus) (UniProt O42275); assay: Mixed-type inhibition of electric eel AChE at 1.25 to 5 nM using varying levels of acetylthiocholine iodide substrate by Lineweaver-Burk plot analysis
[11] = test system: PC-12; assay: Neuroprotective activity against amyloid beta (1 to 42 residues) induced cell death in rat PC12 cells assessed as cell viability at 3.12 uM preincubated for 2 hrs followed by amyloid beta (1 to 42 residues) addition measured after 24 hrs by MTT assay (reference value: 50.5%); format: functional; conditions: read-out: Activity
[12] = test system: PC-12; assay: Cytotoxicity against rat PC12 cells assessed as effect on cell viability at 6 to 100 uM after 24 hrs by MTT assay; format: cell-based; conditions: pc-12, 24 h
[13] = test system: Mus musculus; assay: Toxicity in Kunming mouse assessed as effect on food consumption up to 2000 mg/kg, po measured up to 14 days post dose; format: organism-based; conditions: in vivo, 336 h
[14] = physchem; conditions: PAMPA
Description: Permeability of the compound at 200 uL after 16 hrs by PAMPA-BBB assay

[15] = test system: PC-12; assay: Neuroprotective activity against amyloid beta (1 to 42 residues) induced cell death in rat PC12 cells assessed as cell viability at 6.25 uM preincubated for 2 hrs followed by amyloid beta (1 to 42 residues) addition measured after 24 hrs by MTT assay (reference value: 50.5%); format: functional; conditions: read-out: Activity
[16] = test system: PC-12; assay: Neuroprotective activity against amyloid beta (1 to 42 residues) induced cell death in rat PC12 cells assessed as cell viability at 1.56 uM preincubated for 2 hrs followed by amyloid beta (1 to 42 residues) addition measured after 24 hrs by MTT assay (reference value: 50.5%); format: functional; conditions: read-out: Activity
[17] = biological target: Amyloid-beta precursor protein (Homo sapiens) (UniProt P05067); assay: Inhibition of amyloid beta (1 to 42) (unknown origin) self-induced aggregation assessed as reduction in amyloid beta fibrils by transmission electron microscopic analysis
[18] = test system: PC-12; assay: Neuroprotective activity against amyloid beta (1 to 42 residues) induced cell death in rat PC12 cells assessed as cell viability at 12.5 uM preincubated for 2 hrs followed by amyloid beta (1 to 42 residues) addition measured after 24 hrs by MTT assay (reference value: 50.5%); format: functional; conditions: read-out: Activity
[19] = test system: Mus musculus; assay: Toxicity in Kunming mouse assessed as mortality up to 2000 mg/kg, po measured up to 14 days post dose; format: organism-based; conditions: in vivo, 336 h
[20] = biological target: Cholinesterase (Equus caballus, UniProt P81908); assay: Inhibition of equine serum BuChE using s-butyrylthiocholine iodide as substrate preincubated for 6 mins followed by substrate addition measured up to 180 sec by Ellman's method
Cholinesterase, sequence (P81908 whole entry): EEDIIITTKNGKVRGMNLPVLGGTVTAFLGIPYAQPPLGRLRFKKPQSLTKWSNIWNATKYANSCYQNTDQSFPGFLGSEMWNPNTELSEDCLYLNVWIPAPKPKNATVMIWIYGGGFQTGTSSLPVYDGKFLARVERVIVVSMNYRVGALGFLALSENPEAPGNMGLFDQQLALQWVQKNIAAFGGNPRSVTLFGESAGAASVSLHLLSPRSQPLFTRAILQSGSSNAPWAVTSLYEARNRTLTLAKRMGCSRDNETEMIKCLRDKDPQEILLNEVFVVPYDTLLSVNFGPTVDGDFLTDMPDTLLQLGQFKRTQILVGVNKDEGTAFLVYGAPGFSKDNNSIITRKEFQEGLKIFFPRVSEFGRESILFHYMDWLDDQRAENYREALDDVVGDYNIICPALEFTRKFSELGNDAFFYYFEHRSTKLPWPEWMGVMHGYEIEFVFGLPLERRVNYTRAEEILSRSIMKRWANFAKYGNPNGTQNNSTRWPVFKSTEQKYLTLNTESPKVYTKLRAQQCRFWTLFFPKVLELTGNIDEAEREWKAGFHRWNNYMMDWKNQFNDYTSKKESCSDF

Acetylcholinesterase (Homo sapiens, UniProt P22303), sequence (P22303 whole entry): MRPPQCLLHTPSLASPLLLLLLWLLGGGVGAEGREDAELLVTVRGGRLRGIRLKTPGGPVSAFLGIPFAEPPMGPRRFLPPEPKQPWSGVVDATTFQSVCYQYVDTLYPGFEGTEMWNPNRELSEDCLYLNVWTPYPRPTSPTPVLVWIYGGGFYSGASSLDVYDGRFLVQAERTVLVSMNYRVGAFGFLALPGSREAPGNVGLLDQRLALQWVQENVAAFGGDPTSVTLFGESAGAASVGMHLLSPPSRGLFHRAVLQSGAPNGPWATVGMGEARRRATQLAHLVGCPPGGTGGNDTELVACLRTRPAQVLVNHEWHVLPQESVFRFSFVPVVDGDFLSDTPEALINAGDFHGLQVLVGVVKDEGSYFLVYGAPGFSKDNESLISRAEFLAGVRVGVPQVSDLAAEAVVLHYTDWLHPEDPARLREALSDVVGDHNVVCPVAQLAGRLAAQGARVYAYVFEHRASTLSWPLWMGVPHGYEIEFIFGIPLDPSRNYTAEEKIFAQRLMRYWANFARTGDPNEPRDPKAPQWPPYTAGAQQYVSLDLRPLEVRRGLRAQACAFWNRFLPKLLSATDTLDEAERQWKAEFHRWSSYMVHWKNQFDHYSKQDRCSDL
Acetylcholinesterase (Electrophorus electricus, UniProt O42275), sequence (O42275 whole entry): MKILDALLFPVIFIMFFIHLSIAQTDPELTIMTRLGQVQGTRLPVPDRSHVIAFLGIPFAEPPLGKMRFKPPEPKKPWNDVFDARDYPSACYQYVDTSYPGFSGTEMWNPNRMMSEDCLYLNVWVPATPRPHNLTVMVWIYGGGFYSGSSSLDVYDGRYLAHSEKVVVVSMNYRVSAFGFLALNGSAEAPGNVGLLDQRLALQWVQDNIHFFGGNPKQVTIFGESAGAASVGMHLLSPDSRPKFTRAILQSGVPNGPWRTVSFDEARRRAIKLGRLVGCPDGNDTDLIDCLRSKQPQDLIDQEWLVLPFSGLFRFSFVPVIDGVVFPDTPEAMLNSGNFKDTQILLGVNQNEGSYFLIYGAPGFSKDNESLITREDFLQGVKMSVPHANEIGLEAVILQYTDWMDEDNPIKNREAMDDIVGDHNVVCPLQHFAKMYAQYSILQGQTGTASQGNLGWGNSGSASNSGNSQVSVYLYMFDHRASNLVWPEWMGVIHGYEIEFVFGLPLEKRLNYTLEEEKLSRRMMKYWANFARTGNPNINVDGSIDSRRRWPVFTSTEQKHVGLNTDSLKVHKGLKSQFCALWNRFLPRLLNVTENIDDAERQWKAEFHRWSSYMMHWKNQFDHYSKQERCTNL
Amyloid-beta precursor protein (Homo sapiens), sequence (P05067 whole entry, the tested form may be a part): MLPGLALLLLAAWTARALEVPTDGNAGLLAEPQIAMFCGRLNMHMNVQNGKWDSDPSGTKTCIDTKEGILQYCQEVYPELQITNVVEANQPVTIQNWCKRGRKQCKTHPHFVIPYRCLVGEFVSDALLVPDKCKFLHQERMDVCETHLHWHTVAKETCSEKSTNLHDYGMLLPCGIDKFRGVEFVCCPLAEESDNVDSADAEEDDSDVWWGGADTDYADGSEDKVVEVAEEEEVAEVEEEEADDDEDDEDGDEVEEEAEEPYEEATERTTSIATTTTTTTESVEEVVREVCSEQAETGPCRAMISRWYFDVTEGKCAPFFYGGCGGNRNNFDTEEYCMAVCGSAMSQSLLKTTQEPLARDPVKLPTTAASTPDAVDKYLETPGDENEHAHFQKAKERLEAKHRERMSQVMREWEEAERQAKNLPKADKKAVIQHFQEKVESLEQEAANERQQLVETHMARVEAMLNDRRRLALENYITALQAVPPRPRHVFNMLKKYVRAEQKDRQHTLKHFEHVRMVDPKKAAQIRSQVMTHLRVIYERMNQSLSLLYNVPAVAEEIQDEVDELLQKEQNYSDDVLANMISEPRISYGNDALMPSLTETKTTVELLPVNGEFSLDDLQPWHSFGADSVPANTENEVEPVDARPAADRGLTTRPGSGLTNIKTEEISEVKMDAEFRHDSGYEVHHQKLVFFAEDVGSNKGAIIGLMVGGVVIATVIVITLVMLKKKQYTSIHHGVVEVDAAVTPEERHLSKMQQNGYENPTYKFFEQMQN
Acetylcholinesterase (Electrophorus electricus), sequence (O42275 24-633 limits assumed): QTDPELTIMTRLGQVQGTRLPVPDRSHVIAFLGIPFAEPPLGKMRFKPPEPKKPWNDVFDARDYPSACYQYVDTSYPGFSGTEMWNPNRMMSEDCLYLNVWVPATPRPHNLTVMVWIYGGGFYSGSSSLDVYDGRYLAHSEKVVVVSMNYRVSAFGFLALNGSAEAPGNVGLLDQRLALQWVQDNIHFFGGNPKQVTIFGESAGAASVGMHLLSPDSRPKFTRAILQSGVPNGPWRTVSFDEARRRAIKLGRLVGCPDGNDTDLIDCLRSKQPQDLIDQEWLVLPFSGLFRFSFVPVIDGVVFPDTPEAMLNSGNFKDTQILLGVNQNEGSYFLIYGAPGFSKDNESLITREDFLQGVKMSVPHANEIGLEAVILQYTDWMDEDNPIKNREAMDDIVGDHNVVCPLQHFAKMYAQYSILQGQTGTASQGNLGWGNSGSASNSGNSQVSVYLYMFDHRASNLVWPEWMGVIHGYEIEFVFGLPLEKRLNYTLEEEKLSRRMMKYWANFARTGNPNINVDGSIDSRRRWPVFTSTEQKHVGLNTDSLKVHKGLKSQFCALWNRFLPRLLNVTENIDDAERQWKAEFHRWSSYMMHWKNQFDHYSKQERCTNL

Row | SMILES | Ratio IC50 [1] | Activity [2] | IC50 [3] | inhibition [4] | IC50 [5] | further results
1 | COc1cc2c(cc1OC)C(=O)/C(=C/c1cc[n+](Cc3ccc([N+](=O)[O-])cc3)cc1)C2 | > 130 | 0.49 equiv | 59.5 nM | 47.2% | 74.6 nM | 
2 | COc1cc2c(cc1OC)C(=O)/C(=C/c1cc[n+](Cc3ccc(Br)cc3)cc1)C2 | > 129 | 0.38 equiv | 69.7 nM | 50.2% | 77.3 nM | 
3 | COc1cc2c(cc1OC)C(=O)/C(=C/c1cc[n+](Cc3cccc(C)c3)cc1)C2 | > 2380 | 0.47 equiv | 4 nM | 42.6% | 4.2 nM | 
4 | COc1cc2c(cc1OC)C(=O)/C(=C/c1cc[n+](Cc3ccccc3F)cc1)C2.[Br-] |  | 0.54 equiv | 0.8 nM | 53.7% |  | Activity [6]: Active; Activity [7]: Non-Toxic; Activity [8]: Non-Toxic; viability at 12.5 µM [9]: 73.2%; inhibition [10]: Active; viability at 3.12 µM [11]: 66.5%; Activity [12]: Non-Toxic; Activity [13]: Non-Toxic; Papp at 16 h [14]: 4.97 ×10⁻⁶ cm/s; viability at 6.25 µM [15]: 72.3%; viability at 1.56 µM [16]: 53.7%; inhibition [17]: Active; viability at 12.5 µM [18]: 76.3%; Activity [19]: Non-Toxic
5 | COc1cc2c(cc1OC)C(=O)/C(=C/c1cc[n+](Cc3ccccc3)cc1)C2 | > 3450 | 0.51 equiv | 3.4 nM | 45.6% | 2.9 nM | 
6 | COc1cc2c(cc1OC)C(=O)/C(=C/c1cc[n+](Cc3ccccc3Br)cc1)C2 | > 3450 | 0.37 equiv | 3.8 nM | 56.7% | 2.9 nM | 
7 | COc1cc2c(cc1OC)C(=O)/C(=C/c1cc[n+](Cc3ccc(C)cc3)cc1)C2 | > 391 | 0.39 equiv | 18.6 nM | 49.9% | 25.6 nM | 
8 | COc1cc2c(cc1OC)C(=O)/C(=C/c1cc[n+](Cc3ccc(F)cc3)cc1)C2 | 1170 | 0.51 equiv | 4.1 nM | 47.6% | 4.6 nM | IC50 [20]: 5400 nM
9 | COc1cc2c(cc1OC)C(=O)/C(=C/c1cc[n+](Cc3cccc(Br)c3)cc1)C2 | > 2270 | 0.32 equiv | 5.2 nM | 53.4% | 4.4 nM | 
10 | COc1cc2c(cc1OC)C(=O)/C(=C/c1cc[n+](Cc3cccc(F)c3)cc1)C2 | > 2940 | 0.47 equiv | 2.9 nM | 43.5% | 3.4 nM | 
11 | COc1cc2c(cc1OC)C(=O)/C(=C/c1cc[n+](Cc3cccc([N+](=O)[O-])c3)cc1)C2 | > 1690 | 0.33 equiv | 3.6 nM | 50.8% | 5.9 nM | 
12 | COc1cc2c(cc1OC)C(=O)C(CC1CCN(Cc3ccccc3)CC1)C2 (stereo not given) |  | 0.63 equiv |  |  |  | 
13 | C[C@]12CC[C@@H]3c4ccc(O)cc4CC[C@H]3[C@@H]1CC[C@@H]2O [ESTRADIOL] |  |  |  |  |  | Papp at 16 h [14]: 11.3 ×10⁻⁶ cm/s
14 | COc1cc2c(cc1OC)C(=O)/C(=C/c1cc[n+](Cc3ccccc3C)cc1)C2 | > 1960 | 0.41 equiv | 5.8 nM | 38.7% | 5.1 nM | 
